Laboratory results from patent US8114880B2, “Piperidine or piperazine substituted tetrahydro-naphthalene-1-carboxylic acid MTP inhibiting compounds” (Janssen Pharmaceutica N.V., priority 2006, dated 2012).

test system: not given; assay: not given; details: not given

melting point [°C]	Compound
112 to 115	CCOC(=O)[C@]1(c2ccccc2)CC[C@@H](C(=O)N2CCC(NC(=O)c3ccccc3)CC2)c2ccccc21 (racemic) [Co. No. 25]
103 to 107	C=CCOC(=O)[C@]1(c2ccccc2)CC[C@@H](C(=O)N2CCC(NC(=O)c3ccccc3)CC2)c2ccccc21 [Co. No. 13]

test system: HepG2 cells; assay: Quantification of the secretion of ApoB; type: cell-based; details: Homo sapiens, HepG2, 24 h, 24 hours of incubation, pIC50 = -log IC50
How it was run: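 At 70% confluency, HepG2 cells received compound (0.4% DMSO final) for 24 h. Secreted apoB in cleared medium was immunoprecipitated with sheep anti-apoB then rabbit anti-sheep antibody (24 h each at 8° C.), and pellet radioactivity was counted by scintillation. IC50 values were expressed as pIC50.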

IC50 [nM]	Compound
15	CCOC(=O)[C@]1(c2ccccc2)CC[C@@H](C(=O)N2CCC(NC(=O)c3ccccc3)CC2)c2ccccc21 (racemic) [Co. No. 25]
28.8	C=CCOC(=O)[C@]1(c2ccccc2)CC[C@@H](C(=O)N2CCC(NC(=O)c3ccccc3)CC2)c2ccccc21 [Co. No. 13]
234	CCCOC(=O)CCCCCNC(=O)[C@@]1(c2ccccc2)CC[C@H](C(=O)N2CCC(NC(=O)c3ccccc3OC)CC2)c2ccccc21 [Co. No. 246]
382	CCCOC(=O)CC[C@H](NC(=O)[C@@]1(c2ccccc2)CC[C@H](C(=O)N2CCC(NC(=O)c3ccccc3OC)CC2)c2ccccc21)C(=O)OCCC [Co. No. 247]
184	COc1ccccc1C(=O)NC1CCN(C(=O)[C@H]2CC[C@@](C(=O)N[C@@H](CCC(=O)OC(C)C)C(=O)OC(C)C)(c3ccccc3)c3ccccc32)CC1 [Co. No. 248]
586	CCCOC(=O)CCCNC(=O)[C@@]1(c2ccccc2)CC[C@H](C(=O)N2CCC(NC(=O)c3ccccc3OC)CC2)c2ccccc21 [Co. No. 249]
343	COc1ccccc1C(=O)NC1CCN(C(=O)[C@H]2CC[C@@](C(=O)NCCCC(=O)OC(C)C)(c3ccccc3)c3ccccc32)CC1 [Co. No. 250]
3.52	CCOC(=O)[C@]1(c2ccccc2)CC[C@@H](C(=O)N2CCC(NC(=O)c3ccccc3N3CCOCC3)CC2)c2ccccc21 [Co. No. 252]
3.24	CCOC(=O)[C@@]1(c2ccccc2)CC[C@H](C(=O)N2CCC(NC(=O)c3cccnc3OC)CC2)c2ccccc21 [Co. No. 253]
17.1	COC(=O)CCNC(=O)[C@@]1(c2ccccc2)CC[C@H](C(=O)N2CCC(NC(=O)c3cccnc3OC)CC2)c2ccccc21 [Co. No. 254]
> 1000	COC(=O)CCNC(=O)[C@@]1(c2ccccc2)CC[C@H](C(=O)N2CCC(NC(=O)c3cccnc3O)CC2)c2ccccc21 [Co. No. 255]
> 1000	COC(=O)CCNC(=O)[C@]1(c2ccccc2)CC[C@@H](C(=O)N2CCC(NC(=O)c3ccccc3OC)CC2)c2ccccc21 [Co. No. 256]
> 1000	COc1ccccc1C(=O)NC1CCN(C(=O)[C@@H]2CC[C@](C(=O)NCCC(=O)OC(C)C)(c3ccccc3)c3ccccc32)CC1 [Co. No. 257]
> 1000	COc1ncccc1C(=O)NC1CCN(C(=O)[C@H]2CC[C@@](C(=O)NCCC(=O)O)(c3ccccc3)c3ccccc32)CC1 [Co. No. 258]
6.34	CCCOC(=O)[C@]1(c2ccccc2)CC[C@@H](C(=O)N2CCC(NC(=O)c3ccccc3N3CCOCC3)CC2)c2ccccc21 [Co. No. 260]
> 1000	COc1ncccc1C(=O)NC1CCN(C(=O)[C@@H]2CC[C@](C(=O)NCCC(=O)OC(C)C)(c3ccccc3)c3ccccc32)CC1 [Co. No. 261]
> 1000	COC(=O)CCNC(=O)[C@]1(c2ccccc2)CC[C@@H](C(=O)N2CCC(NC(=O)c3cccnc3OC)CC2)c2ccccc21 [Co. No. 262]
64.4	COC(=O)CCNC(=O)[C@]1(c2ccccc2)CC[C@@H](C(=O)N2CCC(NC(=O)c3ccccc3N3CCOCC3)CC2)c2ccccc21 [Co. No. 263]
2.04	C=CCOC(=O)[C@@]1(c2ccccc2)CC[C@H](C(=O)N2CCC(NC(=O)c3cccnc3OC)CC2)c2ccccc21 [Co. No. 266]
670	COC(=O)CCNC(=O)[C@@]1(c2ccccc2)CC[C@H](C(=O)N2CCC(NC(=O)c3ccccc3N3CCN(C)CC3)CC2)c2ccccc21 [Co. No. 272]
1000	CCOC(=O)[C@@]1(c2cccc(F)c2)CC[C@@H](C(=O)N2CCC(NC(=O)c3ccccc3OC)CC2)c2cc(F)ccc21 [Co. No. 273]
17.3	CCOC(=O)[C@@]1(c2ccccc2)CC[C@H](C(=O)N2CCC(NC(=O)c3cccnc3OC(C)C)CC2)c2ccccc21 [Co. No. 274]
> 1000	COc1ccccc1C(=O)NC1CCN(C(=O)[C@H]2CC[C@](C(=O)NCCC(=O)OC(C)C)(c3ccc(Br)cc3)c3cc(Br)ccc32)CC1 [Co. No. 275]
75.2	CC(C)OC(=O)CCNC(=O)[C@@]1(c2ccccc2)CC[C@H](C(=O)N2CCC(NC(=O)c3ccccc3N3CCN(C)CC3)CC2)c2ccccc21 [Co. No. 276]
108	CC(C)OC(=O)CCNC(=O)[C@@]1(c2ccccc2)CC[C@H](C(=O)N2CCC(NC(=O)c3cccnc3N3CCN(C)CC3)CC2)c2ccccc21 [Co. No. 277]
14.1	CCCOC(=O)CCNC(=O)[C@@]1(c2ccccc2)CC[C@H](C(=O)N2CCC(NC(=O)c3ccccc3OC)CC2)c2ccccc21 [Co. No. 279]
3.82	COc1ncccc1C(=O)NC1CCN(C(=O)[C@H]2CC[C@@](C(=O)NCCC(=O)OC(C)C)(c3ccccc3)c3ccccc32)CC1 [Co. No. 280]

molecular target: MTP (Homo sapiens, UniProt P55157); assay: MTP assay (triglyceride transfer from donor to acceptor vesicles); type: biochemical; details: MTP activity, percent triglyceride transfer from donor to acceptor vesicles, 37° C.
How it was run: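 Radiolabelled triglyceride transfer from donor vesicles (phosphatidylcholine, 7.5 mol % cardiolipin, 0.25 mol % glycerol tri[1-^14C]-oleate) to phosphatidylcholine acceptor vesicles with BSA, pH 7.5 Tris buffer; compounds in DMSO (0.13% final), 5 min preincubation at 37° C before MTP addition. Donor vesicles removed on DEAE-52; acceptor-supernatant ^14C counts give percent transfer.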

Chain of MTP (P55157 19-894, species assumed): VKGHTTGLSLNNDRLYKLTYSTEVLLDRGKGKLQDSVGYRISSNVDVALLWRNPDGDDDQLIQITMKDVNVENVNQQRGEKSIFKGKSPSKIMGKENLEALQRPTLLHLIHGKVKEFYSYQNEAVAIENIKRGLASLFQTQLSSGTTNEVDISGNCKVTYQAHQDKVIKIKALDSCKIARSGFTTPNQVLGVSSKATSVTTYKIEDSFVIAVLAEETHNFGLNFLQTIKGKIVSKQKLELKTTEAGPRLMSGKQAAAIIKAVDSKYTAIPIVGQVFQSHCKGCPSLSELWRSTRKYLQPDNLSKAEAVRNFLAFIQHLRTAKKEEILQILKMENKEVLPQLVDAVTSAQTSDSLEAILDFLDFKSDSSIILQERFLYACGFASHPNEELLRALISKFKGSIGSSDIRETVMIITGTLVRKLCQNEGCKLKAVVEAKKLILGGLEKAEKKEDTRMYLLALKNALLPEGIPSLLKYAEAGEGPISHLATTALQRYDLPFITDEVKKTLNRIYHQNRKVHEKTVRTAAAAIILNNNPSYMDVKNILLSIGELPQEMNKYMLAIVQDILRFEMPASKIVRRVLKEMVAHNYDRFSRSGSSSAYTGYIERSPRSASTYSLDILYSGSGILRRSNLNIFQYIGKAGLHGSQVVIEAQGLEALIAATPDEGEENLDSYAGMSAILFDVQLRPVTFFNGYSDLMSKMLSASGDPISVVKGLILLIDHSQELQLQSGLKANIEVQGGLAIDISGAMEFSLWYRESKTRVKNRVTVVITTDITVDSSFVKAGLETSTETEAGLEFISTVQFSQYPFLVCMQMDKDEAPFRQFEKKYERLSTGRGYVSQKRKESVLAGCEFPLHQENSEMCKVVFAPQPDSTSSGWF
Chain of MTP (P07237 18-508 partner, species assumed): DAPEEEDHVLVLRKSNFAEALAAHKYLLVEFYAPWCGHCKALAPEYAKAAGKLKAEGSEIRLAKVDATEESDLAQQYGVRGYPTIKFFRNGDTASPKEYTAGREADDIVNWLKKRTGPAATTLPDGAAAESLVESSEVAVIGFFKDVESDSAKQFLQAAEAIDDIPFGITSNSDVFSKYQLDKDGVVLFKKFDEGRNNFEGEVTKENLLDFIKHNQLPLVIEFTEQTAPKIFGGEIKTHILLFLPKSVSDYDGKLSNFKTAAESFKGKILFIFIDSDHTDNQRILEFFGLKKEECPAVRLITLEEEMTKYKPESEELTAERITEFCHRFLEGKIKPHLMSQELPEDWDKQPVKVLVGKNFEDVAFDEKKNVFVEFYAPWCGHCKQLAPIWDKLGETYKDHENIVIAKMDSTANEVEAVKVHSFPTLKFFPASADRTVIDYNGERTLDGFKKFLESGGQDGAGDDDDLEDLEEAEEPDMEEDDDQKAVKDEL

IC50 [nM]	Compound
3.85	CCOC(=O)[C@]1(c2ccccc2)CC[C@@H](C(=O)N2CCC(NC(=O)c3ccccc3)CC2)c2ccccc21 (racemic) [Co. No. 25]
6.05	C=CCOC(=O)[C@]1(c2ccccc2)CC[C@@H](C(=O)N2CCC(NC(=O)c3ccccc3)CC2)c2ccccc21 [Co. No. 13]
3.87	CCCOC(=O)CCCCCNC(=O)[C@@]1(c2ccccc2)CC[C@H](C(=O)N2CCC(NC(=O)c3ccccc3OC)CC2)c2ccccc21 [Co. No. 246]
5.96	CCCOC(=O)CC[C@H](NC(=O)[C@@]1(c2ccccc2)CC[C@H](C(=O)N2CCC(NC(=O)c3ccccc3OC)CC2)c2ccccc21)C(=O)OCCC [Co. No. 247]
6.61	COc1ccccc1C(=O)NC1CCN(C(=O)[C@H]2CC[C@@](C(=O)N[C@@H](CCC(=O)OC(C)C)C(=O)OC(C)C)(c3ccccc3)c3ccccc32)CC1 [Co. No. 248]
2.64	CCCOC(=O)CCCNC(=O)[C@@]1(c2ccccc2)CC[C@H](C(=O)N2CCC(NC(=O)c3ccccc3OC)CC2)c2ccccc21 [Co. No. 249]
1.79	COc1ccccc1C(=O)NC1CCN(C(=O)[C@H]2CC[C@@](C(=O)NCCCC(=O)OC(C)C)(c3ccccc3)c3ccccc32)CC1 [Co. No. 250]
2.49	CCOC(=O)[C@]1(c2ccccc2)CC[C@@H](C(=O)N2CCC(NC(=O)c3ccccc3N3CCOCC3)CC2)c2ccccc21 [Co. No. 252]
0.984	CCOC(=O)[C@@]1(c2ccccc2)CC[C@H](C(=O)N2CCC(NC(=O)c3cccnc3OC)CC2)c2ccccc21 [Co. No. 253]
3	COC(=O)CCNC(=O)[C@@]1(c2ccccc2)CC[C@H](C(=O)N2CCC(NC(=O)c3cccnc3OC)CC2)c2ccccc21 [Co. No. 254]
585	COC(=O)CCNC(=O)[C@@]1(c2ccccc2)CC[C@H](C(=O)N2CCC(NC(=O)c3cccnc3O)CC2)c2ccccc21 [Co. No. 255]
> 1000	COC(=O)CCNC(=O)[C@]1(c2ccccc2)CC[C@@H](C(=O)N2CCC(NC(=O)c3ccccc3OC)CC2)c2ccccc21 [Co. No. 256]
> 1000	COc1ccccc1C(=O)NC1CCN(C(=O)[C@@H]2CC[C@](C(=O)NCCC(=O)OC(C)C)(c3ccccc3)c3ccccc32)CC1 [Co. No. 257]
1800	COc1ncccc1C(=O)NC1CCN(C(=O)[C@H]2CC[C@@](C(=O)NCCC(=O)O)(c3ccccc3)c3ccccc32)CC1 [Co. No. 258]
3.64	CCCOC(=O)[C@]1(c2ccccc2)CC[C@@H](C(=O)N2CCC(NC(=O)c3ccccc3N3CCOCC3)CC2)c2ccccc21 [Co. No. 260]
757	COc1ncccc1C(=O)NC1CCN(C(=O)[C@@H]2CC[C@](C(=O)NCCC(=O)OC(C)C)(c3ccccc3)c3ccccc32)CC1 [Co. No. 261]
> 1000	COC(=O)CCNC(=O)[C@]1(c2ccccc2)CC[C@@H](C(=O)N2CCC(NC(=O)c3cccnc3OC)CC2)c2ccccc21 [Co. No. 262]
15.7	COC(=O)CCNC(=O)[C@]1(c2ccccc2)CC[C@@H](C(=O)N2CCC(NC(=O)c3ccccc3N3CCOCC3)CC2)c2ccccc21 [Co. No. 263]
0.966	C=CCOC(=O)[C@@]1(c2ccccc2)CC[C@H](C(=O)N2CCC(NC(=O)c3cccnc3OC)CC2)c2ccccc21 [Co. No. 266]
50.9	COC(=O)CCNC(=O)[C@@]1(c2ccccc2)CC[C@H](C(=O)N2CCC(NC(=O)c3ccccc3N3CCN(C)CC3)CC2)c2ccccc21 [Co. No. 272]
165	CCOC(=O)[C@@]1(c2cccc(F)c2)CC[C@@H](C(=O)N2CCC(NC(=O)c3ccccc3OC)CC2)c2cc(F)ccc21 [Co. No. 273]
4.69	CCOC(=O)[C@@]1(c2ccccc2)CC[C@H](C(=O)N2CCC(NC(=O)c3cccnc3OC(C)C)CC2)c2ccccc21 [Co. No. 274]
> 1000	COc1ccccc1C(=O)NC1CCN(C(=O)[C@H]2CC[C@](C(=O)NCCC(=O)OC(C)C)(c3ccc(Br)cc3)c3cc(Br)ccc32)CC1 [Co. No. 275]
3.49	CC(C)OC(=O)CCNC(=O)[C@@]1(c2ccccc2)CC[C@H](C(=O)N2CCC(NC(=O)c3ccccc3N3CCN(C)CC3)CC2)c2ccccc21 [Co. No. 276]
11.4	CC(C)OC(=O)CCNC(=O)[C@@]1(c2ccccc2)CC[C@H](C(=O)N2CCC(NC(=O)c3cccnc3N3CCN(C)CC3)CC2)c2ccccc21 [Co. No. 277]
1.5	CCCOC(=O)CCNC(=O)[C@@]1(c2ccccc2)CC[C@H](C(=O)N2CCC(NC(=O)c3ccccc3OC)CC2)c2ccccc21 [Co. No. 279]
0.82	COc1ncccc1C(=O)NC1CCN(C(=O)[C@H]2CC[C@@](C(=O)NCCC(=O)OC(C)C)(c3ccccc3)c3ccccc32)CC1 [Co. No. 280]
